One experiment has as its system HCT15 cells. The experiment is described as follows: HCT15 anti-proliferation / cell killing assay (CellTiter-Glo), with or without verapamil. It counts as cell-based, human. The settings on record: Homo sapiens. The method, then:
The cell line used in the anti-proliferation assays was HCT15, a human colon, colorectal carcinoma cell line. The HCT15 cells were grown in RPMI medium 1640+10% FBS. To run the assay, the cells (40 μL, 400 cells) were added to each well in a 384-well plate and incubated for twenty-four hours at 37° C. with 5% CO2. One hour before adding compounds, freshly dilute Verapamil to 0.2 mg/ml in ddH2O. Add 1 μL/well diluted Verapamil to Verapamil treatment wells and 1 μL/well ddH2O to the non-Verapamil treatment wells. Return plates to the incubator at 37° C. with 5% CO2. Then the cells were treated with test compounds at various concentrations using HPD300, and then normalize the DMSO to 0.5%. The control wells contained cells and the medium but lack the test compounds. The plates were incubated for 120 hours at 37° C. with 5% CO2. CTG reagent was then added to the wells (25 μL). After the plates were shaken for 10 min and then incubated for 10 min at room temperature, paste the clear bottom with white back seal and record luminescence with Envision. The inhibition % was calculated according to the following equation: inhibition %=[1−(assay-blank)/(control-blank)]×100.

For the next experiment, the system named is SK-BR-3 cells. Put plainly: SK-BR-3 anti-proliferation assay for payloads (CellTiter-Glo). It counts as cell-based. Particulars: Homo sapiens, free payload, 120-144 h, read-out: SKBR3. The method, then:
The cell line used in the anti-proliferation assays was SK-BR-3, a human breast, adenocarcinoma (pleural effusion) cell line. The cells were grown in McCoy's 5a Medium+10% FBS. To run the assay for payloads, the cells (40 μL, 700 cells) were added to each well in a 384-well plate and incubated for 24 hours at 37° C. with 5% CO2. Then the cells were treated with test compounds at various concentrations using HPD300, and then normalize the DMSO to 0.5%. The control wells contain cells and the medium but lack the test compounds. The plates were incubated for 120 h at 37° C. with 5% CO2. To run the assay for ADCs and some key payloads, the cells (80 μL, 1000 cells) were added to each well in a 96-well plate and incubated for twenty-four hours at 37° C. with 5% CO2. Next, the ADCs or payloads were diluted with Opti-Mem with 0.1% BSA. The cells were treated with test compounds or ADCs (20 μL) at various concentrations in appropriate cell culture medium (total volume, 0.1 mL). The final concentration of DMSO was adjusted to 0.2% and the Opti-Mem with 0.1% BSA was adjusted to 5%. The control wells contained cells and the medium but lacked the test compounds. The plates were incubated for 144 h at 37° C. with 5% CO2. CTG reagent was then added to the wells (25 μL/384-well or 100 μL/96-well). After the plates were shaken for 10 min and then incubated for 10 min at room temperature, paste the clear bottom with white back seal and record luminescence with Envision. The inhibition % was calculated according to the following equation: inhibition %=[1-(assay-blank)/(control-blank)]×100.
(In ATP-based viability assays light output follows the ATP content of the culture.)

The mark [1] stands for this setting: HCT15 cells, no verapamil, 120 h (5 days), read-out: HCT-15.
Setting [2] is: HCT-15, HCT15 cells pre-treated with verapamil, 120 h, read-out: HCT-15 with verapamil.

Read-outs that look alike come from different tables or passages of the source.

Turning to `CCCCCCN(C(=O)[C@@H](NC(=O)[C@H]1CCCCN1CCN)[C@@H](C)CC)[C@H](C[C@@H](OCC)c1nc(C(=O)N[C@@H](Cc2ccc(O)cc2)CC(C)(C)C(=O)O)cs1)C(C)C` [PA4, (S)-4-(2-((1R,3R)-3-((2S,3S)-2-((R)-1-(2-aminoethyl)piperidine-2-carboxamido)-N-hexyl-3-methylpentanamido)-1-ethoxy-4-methylpentyl)thiazole-4-carboxamido)-5-(4-hydroxyphenyl)-2,2-dimethylpentanoic acid], the IC50 is 85 nM in the experiment with HCT15 cells (setting [1]), 6.19 nM in the experiment on HCT15 cells (setting [2]) and greater than 1 nM in the experiment on SK-BR-3 cells.

In the case of `CCCCCCN(C(=O)[C@@H](NC(=O)[C@@]1(C)CCCN1CCO)[C@@H](C)CC)[C@H](C[C@@H](OC(C)=O)c1nc(C(=O)N[C@@H](Cc2ccc(N)cc2)CC(C)(C)C(=O)O)cs1)C(C)C` [PA6, (4S)-4-({2-[(1R,3R)-1-(acetyloxy)-3-[(2S,3S)—N-hexyl-2-{[(2R)-1-(2-hydroxyethyl)-2-methylpyrrolidin-2-yl]formamido}-3-methylpentanamido]-4-methylpentyl]-1,3-thiazol-4-yl}formamido)-5-(4-aminophenyl)-2,2-dimethylpentanoic acid], the IC50 in the experiment on HCT15 cells (setting [1]) came to 3.27 nM; in the experiment with HCT15 cells (setting [2]), 0.62 nM; with SK-BR-3 cells, 0.514 nM.

With `CCCCCCN(C(=O)[C@@H](NC(=O)[C@H]1CCCCN1CCO)[C@@H](C)CC)[C@H](C[C@@H](OC(C)=O)c1nc(C(=O)N[C@@H](Cc2ccc(N)c(F)c2)CC(C)(C)C(=O)O)cs1)C(C)C` [PA8, (4S)-4-({2-[(1R,3R)-1-(acetyloxy)-3-[(2S,3S)—N-hexyl-2-{[(2R)-1-(2-hydroxyethyl)piperidin-2-yl]formamido}-3-methylpentanamido]-4-methylpentyl]-1,3-thiazol-4-yl}formamido)-5-(4-amino-3-fluorophenyl)-2,2-dimethylpentanoic acid], the results for the IC50 in the experiment with HCT15 cells (setting [1]), in the experiment with HCT15 cells (setting [2]) and with SK-BR-3 cells were 0.072 nM, 0.029 nM and 0.017 nM, respectively.

Consider `CCCCCCN(C(=O)[C@@H](NC(=O)[C@H]1CCCCN1CCO)[C@@H](C)CC)[C@H](C[C@@H](OCC)c1nc(C(=O)N[C@@H](Cc2ccc(NC(=O)CN)cc2)CC(C)(C)C(=O)O)cs1)C(C)C` [PA9, (S)-5-(4-(2-aminoacetamido)phenyl)-4-(2-((1R,3R)-1-ethoxy-3-((2S,3S)—N-hexyl-2-((R)-1-(2-hydroxyethyl)piperidine-2-carboxamido)-3-methylpentanamido)-4-methylpentyl)thiazole-4-carboxamido)-2,2-dimethylpentanoic acid], for which the IC50 in the experiment on HCT15 cells (setting [1]) came out at 9.89 nM; in the experiment with HCT15 cells (setting [2]), 1.08 nM; with SK-BR-3 cells, 5.38 nM.

Turning to `CCCCCCN(C(=O)[C@@H](NC(=O)[C@H]1CCCCN1CC(=O)O)[C@@H](C)CC)[C@H](C[C@@H](OC(C)=O)c1nc(C(=O)N[C@@H](Cc2ccc(N)cc2)CC(C)(C)C(=O)O)cs1)C(C)C` [PA10, (S)-4-(2-((1R,3R)-1-acetoxy-3-((2S,3S)-2-((R)-1-(carboxymethyl)piperidine-2-carboxamido)-N-hexyl-3-methylpentanamido)-4-methylpentyl)thiazole-4-carboxamido)-5-(4-aminophenyl)-2,2-dimethylpentanoic acid], the figures for the IC50 with HCT15 cells (setting [1]), in the experiment with HCT15 cells (setting [2]) and in the experiment with SK-BR-3 cells were 31.7 nM, 2.95 nM and 5.33 nM, respectively.

With `CCCCCCN(C(=O)[C@@H](NC(=O)[C@H]1CCCCN1CCOCCN)[C@@H](C)CC)[C@H](C[C@@H](OC(C)=O)c1nc(C(=O)N[C@@H](Cc2ccc(N)cc2)CC(C)(C)C(=O)O)cs1)C(C)C` [PA11, (4S)-4-({2-[(1R,3R)-1-(acetyloxy)-3-[(2S,3S)-2-{[(2R)-1-[2-(2-aminoethoxy)ethyl]piperidin-2-yl]formamido}-N-hexyl-3-methylpentanamido]-4-methylpentyl]-1,3-thiazol-4-yl}formamido)-5-(4-aminophenyl)-2,2-dimethylpentanoic acid], the results for the IC50 with HCT15 cells (setting [1]), in the experiment with HCT15 cells (setting [2]) and in the experiment on SK-BR-3 cells were 150 nM, 5.3 nM and 15.1 nM, respectively.

Consider `CCCCCCN(C(=O)[C@@H](NC(=O)[C@H]1CCCCN1CCOCCOCCN)[C@@H](C)CC)[C@H](C[C@@H](OC(C)=O)c1nc(C(=O)N[C@@H](Cc2ccc(N)cc2)CC(C)(C)C(=O)O)cs1)C(C)C` [PA12, (4S)-4-({2-[(1R,3R)-1-(acetyloxy)-3-[(2S,3S)-2-{[(2R)-1-{2-[2-(2-aminoethoxy)ethoxy]ethyl}piperidin-2-yl]formamido}-N-hexyl-3-methylpentanamido]-4-methylpentyl]-1,3-thiazol-4-yl}formamido)-5-(4-aminophenyl)-2,2-dimethylpentanoic acid], for which the IC50 in the experiment with HCT15 cells (setting [1]) is 72.1 nM; with HCT15 cells (setting [2]) it was 4.73 nM; with SK-BR-3 cells, greater than 100 nM.

Regarding `CCCCCCN(C(=O)[C@@H](NC(=O)[C@H]1CCCCN1C)[C@@H](C)CC)[C@H](C[C@@H](NC(C)=O)c1nc(C(=O)N[C@@H](Cc2ccc(NC(=O)CN)cc2)CC(C)(C)C(=O)O)cs1)C(C)C` [PA21, (S)-4-(2-((1R,3R)-1-acetamido-3-((2S,3S)—N-hexyl-3-methyl-2-((R)-1-methylpiperidine-2-carboxamido)pentanamido)-4-methylpentyl)thiazole-4-carboxamido)-acid], the IC50 in the experiment on HCT15 cells (setting [1]) stood at 13.8 nM; in the experiment with HCT15 cells (setting [2]), 1.73 nM; with SK-BR-3 cells, 0.703 nM.

As to `CCCCCCN(C(=O)[C@@H](NC(=O)[C@H]1CCCCN1C)[C@@H](C)CC)[C@H](C[C@@H](OC(=O)NCC(O)CO)c1nc(C(=O)N[C@@H](Cc2ccc(N)cc2)CC(C)(C)C(=O)O)cs1)C(C)C` (stereo partly drawn) [PA26, (4S)-5-(4-aminophenyl)-4-(2-((3S,6R,8R)-3-((S)-sec-butyl)-5-hexyl-13,14-dihydroxy-6-isopropyl-1-((R)-1-methylpiperidin-2-yl)-1,4,10-trioxo-9-oxa-2,5,11-triazatetradecan-8-yl)thiazole-4-carboxamido)-2,2-dimethylpentanoic acid], the IC50 in the experiment with HCT15 cells (setting [1]) came to 14.6 nM; in the experiment with HCT15 cells (setting [2]), 2.23 nM; in the experiment with SK-BR-3 cells it was 2.82 nM.

Consider `CCCCCCN(C(=O)[C@@H](NC(=O)[C@H]1CCCCN1C)[C@@H](C)CC)[C@H](C[C@@H](OC(=O)NCC(O)CO)c1nc(C(=O)N[C@@H](Cc2ccc(NCCO)cc2)CC(C)(C)C(=O)O)cs1)C(C)C` (some centres unmarked) [PA27], for which the IC50 with HCT15 cells (setting [1]) is greater than 100 nM; in the experiment on HCT15 cells (setting [2]), 33.6 nM; with SK-BR-3 cells, 63.9 nM.

Turning to `CCCCCCN(C(=O)[C@@H](NC(=O)[C@H]1CCCCO1)[C@@H](C)CC)[C@H](C[C@@H](OCC)c1nc(C(=O)N[C@@H](Cc2ccc(N)cc2)CC(C)(C)C(=O)O)cs1)C(C)C` [PA28], the results for the IC50 in the experiment with HCT15 cells (setting [1]) and in the experiment with SK-BR-3 cells were 154 nM and greater than 100 nM, respectively.

The record behind these values is patent US20230414775A1, “TUBULYSINS AND PROTEIN-TUBULYSIN CONJUGATES” (priority 2021, published 2023).
